According to patent US9889113B2, “Method for reversing, preventing, delaying or stabilizing soft tissue calcification” (Panion & BF Biotech, Inc., priority 2006, dated 2018):

How the values were obtained:
[1] = tested on: patients with end stage renal disease (ESRD) on hemodialysis; experiment: Randomized, double-blind, placebo-controlled, dose-ranging study of ferric citrate on serum phosphate, Ca and Ca×PO4; format: in vivo, human; details: Day 28; 2, 4, 6 g/day TID vs placebo
[2] = tested on: patients with end stage renal disease (ESRD); experiment: Treatment-emergent adverse events in the dose-ranging study; format: in vivo, human
Source text: Objectives: (1) To determine the effect of ferric citrate at doses of 2, 4 and 6 g daily, administered TID (three times a day), for 28 days on serum phosphate (PO4) levels in patients with end stage renal disease (ESRD). (2) To evaluate the safety of ferric citrate at doses of 2, 4, 6 g daily, administered TID, for 28 days in patients with ESRD.
Study Design: Randomized, double-blind, placebo-controlled, dose-ranging study to assess the effect of ferric citrate on serum phosphate concentrations in patients with ESRD on hemodialysis. Patients are assessed at Study Days 14 and 28 for effectiveness as measured by serum phosphate concentrations. Patients who received one or more doses of study medication are also assessed for safety.

O=C([O-])CC(O)(CC(=O)[O-])C(=O)[O-].[Fe+3] [ferric citrate]
Ca × PO4 (mg/dL)^2: Linear Regression P [1]: P = 0.0158
Abdominal Pain (Preferred Term): # Event ([2]; 2 g/day (N = 33)): 0
Abdominal Pain (Preferred Term): (%) ([2]; 2 g/day (N = 33)): (0.0) %
Diarrhea (Preferred Term): # Event ([2]; 2 g/day (N = 33)): 3
Diarrhea (Preferred Term): (%) ([2]; 2 g/day (N = 33)): (9.1) %
GI Disorder, Definitely (relationship): # Event ([2]; 2 g/day (N = 33)): 0
GI Disorder, Definitely (relationship): (%) ([2]; 2 g/day (N = 33)): (0.0) %
GI Disorder, Possibly (relationship): # Event ([2]; 2 g/day (N = 33)): 3
GI Disorder, Possibly (relationship): (%) ([2]; 2 g/day (N = 33)): (9.1) %
GI Disorder, Probably (relationship): # Event ([2]; 2 g/day (N = 33)): 2
GI Disorder, Probably (relationship): (%) ([2]; 2 g/day (N = 33)): (6.1) %
GI Disorders (System Organ Class): # Event ([2]; 2 g/day (N = 33)): 8
GI Disorders (System Organ Class): (%) ([2]; 2 g/day (N = 33)): (24.2) %
GI Disorders, Mild (severity): # Event ([2]; 2 g/day (N = 33)): 6
GI Disorders, Mild (severity): (%) ([2]; 2 g/day (N = 33)): (18.2) %
General Disorders (System Organ Class): # Event ([2]; 2 g/day (N = 33)): 4
General Disorders (System Organ Class): (%) ([2]; 2 g/day (N = 33)): (12.1) %
Infections and Infestations (System Organ Class): # Event ([2]; 2 g/day (N = 33)): 0
Infections and Infestations (System Organ Class): (%) ([2]; 2 g/day (N = 33)): (0.0) %
Skin and SC Tissue Disorders (System Organ Class): # Event ([2]; 2 g/day (N = 33)): 3
Skin and SC Tissue Disorders (System Organ Class): (%) ([2]; 2 g/day (N = 33)): (9.1) %
T#at1AE, Definitely (relationship): # Event ([2]; 2 g/day (N = 33)): 0
T#at1AE, Definitely (relationship): (%) ([2]; 2 g/day (N = 33)): (0.0) %
T#at1AE, Mild (severity): # Event ([2]; 2 g/day (N = 33)): 13
T#at1AE, Mild (severity): (%) ([2]; 2 g/day (N = 33)): (39.4) %
T#at1AE, Moderate (severity): # Event ([2]; 2 g/day (N = 33)): 6
T#at1AE, Moderate (severity): (%) ([2]; 2 g/day (N = 33)): (18.2) %
T#at1AE, Possibly (relationship): # Event ([2]; 2 g/day (N = 33)): 5
T#at1AE, Possibly (relationship): (%) ([2]; 2 g/day (N = 33)): (15.2) %
T#at1AE, Probably (relationship): # Event ([2]; 2 g/day (N = 33)): 2
T#at1AE, Probably (relationship): (%) ([2]; 2 g/day (N = 33)): (6.1) %
T#at1AE, Severe (severity): # Event ([2]; 2 g/day (N = 33)): 0
T#at1AE, Severe (severity): (%) ([2]; 2 g/day (N = 33)): (0.0) %
Total number of subjects with at least one adverse event (T#at1AE): # Event ([2]; 2 g/day (N = 33)): 16
Total number of subjects with at least one adverse event (T#at1AE): (%) ([2]; 2 g/day (N = 33)): (48.5) %
Abdominal Pain (Preferred Term): # Event ([2]; 4 g/day (N = 34)): 4
Abdominal Pain (Preferred Term): (%) ([2]; 4 g/day (N = 34)): (11.8) %
Diarrhea (Preferred Term): # Event ([2]; 4 g/day (N = 34)): 1
Diarrhea (Preferred Term): (%) ([2]; 4 g/day (N = 34)): (2.9) %
GI Disorder, Definitely (relationship): # Event ([2]; 4 g/day (N = 34)): 0
GI Disorder, Definitely (relationship): (%) ([2]; 4 g/day (N = 34)): (0.0) %
GI Disorder, Possibly (relationship): # Event ([2]; 4 g/day (N = 34)): 6
GI Disorder, Possibly (relationship): (%) ([2]; 4 g/day (N = 34)): (17.6) %
GI Disorder, Probably (relationship): # Event ([2]; 4 g/day (N = 34)): 2
GI Disorder, Probably (relationship): (%) ([2]; 4 g/day (N = 34)): (5.9) %
GI Disorders (System Organ Class): # Event ([2]; 4 g/day (N = 34)): 10
GI Disorders (System Organ Class): (%) ([2]; 4 g/day (N = 34)): (29.4) %
GI Disorders, Mild (severity): # Event ([2]; 4 g/day (N = 34)): 8
GI Disorders, Mild (severity): (%) ([2]; 4 g/day (N = 34)): (23.5) %
General Disorders (System Organ Class): # Event ([2]; 4 g/day (N = 34)): 2
General Disorders (System Organ Class): (%) ([2]; 4 g/day (N = 34)): (5.9) %
Infections and Infestations (System Organ Class): # Event ([2]; 4 g/day (N = 34)): 3
Infections and Infestations (System Organ Class): (%) ([2]; 4 g/day (N = 34)): (8.8) %
Skin and SC Tissue Disorders (System Organ Class): # Event ([2]; 4 g/day (N = 34)): 0
Skin and SC Tissue Disorders (System Organ Class): (%) ([2]; 4 g/day (N = 34)): (0.0) %
T#at1AE, Definitely (relationship): # Event ([2]; 4 g/day (N = 34)): 0
T#at1AE, Definitely (relationship): (%) ([2]; 4 g/day (N = 34)): (0.0) %
T#at1AE, Mild (severity): # Event ([2]; 4 g/day (N = 34)): 9
T#at1AE, Mild (severity): (%) ([2]; 4 g/day (N = 34)): (26.5) %
T#at1AE, Moderate (severity): # Event ([2]; 4 g/day (N = 34)): 3
T#at1AE, Moderate (severity): (%) ([2]; 4 g/day (N = 34)): (8.8) %
T#at1AE, Possibly (relationship): # Event ([2]; 4 g/day (N = 34)): 6
T#at1AE, Possibly (relationship): (%) ([2]; 4 g/day (N = 34)): (17.6) %
T#at1AE, Probably (relationship): # Event ([2]; 4 g/day (N = 34)): 2
T#at1AE, Probably (relationship): (%) ([2]; 4 g/day (N = 34)): (5.9) %
T#at1AE, Severe (severity): # Event ([2]; 4 g/day (N = 34)): 2
T#at1AE, Severe (severity): (%) ([2]; 4 g/day (N = 34)): (5.9) %
Total number of subjects with at least one adverse event (T#at1AE): # Event ([2]; 4 g/day (N = 34)): 12
Total number of subjects with at least one adverse event (T#at1AE): (%) ([2]; 4 g/day (N = 34)): (35.3) %
Abdominal Pain (Preferred Term): # Event ([2]; 6 g/day (N = 33)): 2
Abdominal Pain (Preferred Term): (%) ([2]; 6 g/day (N = 33)): (6.1) %
Diarrhea (Preferred Term): # Event ([2]; 6 g/day (N = 33)): 1
Diarrhea (Preferred Term): (%) ([2]; 6 g/day (N = 33)): (3.0) %
GI Disorder, Definitely (relationship): # Event ([2]; 6 g/day (N = 33)): 0
GI Disorder, Definitely (relationship): (%) ([2]; 6 g/day (N = 33)): (0.0) %
GI Disorder, Possibly (relationship): # Event ([2]; 6 g/day (N = 33)): 1
GI Disorder, Possibly (relationship): (%) ([2]; 6 g/day (N = 33)): (3.0) %
